One assay concerns the target T1, SSTR1 (Homo sapiens, UniProt P30872).
T1 construct: purchased Perkin Elmer ES-520-M400UA; host or cells: CHO-K1 membranes
Nature of the assay: SSTR1 I-125 somatostatin competition binding assay for selectivity versus SSTR1 (CHO-K1 membranes). The conditions noted are these: competition with I-125 somatostatin, membranes from CHO-K1 overexpressing SSTR1; read-out: SSTR1 Binding pIC50 (converted). In outline: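 Competition binding used 10 μg CHO-K1 SSTR1 membranes and I-125 somatostatin, 0.4 nM in the compound mix before membranes were added. Buffer was 25 mM HEPES pH 7.4, 10 mM MgCl2, 1 mM CaCl2, 0.5% BSA. After 60 min at room temperature, bound tracer was filtered onto PEI-soaked filters and counted by scintillation; values are pIC50.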

Assay [1] has as its target T2, SSTR4 (Homo sapiens, UniProt P31391).
T2 construct: host or cells: CHO-K1
Nature of the assay: Inhibition of forskolin stimulated cAMP in CHO-K1 cells overexpressing SSTR4. The format is cell-based. The conditions noted are these: read-out: SSTR4 Activity pEC50 (converted). Put shortly:
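CHO-K1 cells overexpressing SSTR4 treated 30 min at room temperature with compound in Krebs Ringer buffer containing 0.5% BSA, 300 μM IBMX and 350 nM forskolin. Intracellular cAMP measured by HTRF LANCE Ultra (665/615 nm); pEC50 values reported.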

Assay [2] has as its target T2, SSTR4. Nature of the assay: SSTR4 I-125 somatostatin competition binding assay (CHO-K1 membranes). The conditions noted are these: competition with I-125 somatostatin, membranes from CHO-K1 overexpressing SSTR4; read-out: SSTR4 Binding pIC50 (converted). In outline:
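CHO-K1 membranes overexpressing SSTR4 (1 μg/well) were incubated 60 min at room temperature with compound and I-125 somatostatin (0.2 nM in the compound mix) in 25 mM HEPES pH 7.4, 10 mM MgCl2, 1 mM CaCl2, 0.5% BSA. Bound radioligand was collected on PEI-soaked filters and scintillation-counted, with results reported as pIC50.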

T1 sequence (P30872 whole entry): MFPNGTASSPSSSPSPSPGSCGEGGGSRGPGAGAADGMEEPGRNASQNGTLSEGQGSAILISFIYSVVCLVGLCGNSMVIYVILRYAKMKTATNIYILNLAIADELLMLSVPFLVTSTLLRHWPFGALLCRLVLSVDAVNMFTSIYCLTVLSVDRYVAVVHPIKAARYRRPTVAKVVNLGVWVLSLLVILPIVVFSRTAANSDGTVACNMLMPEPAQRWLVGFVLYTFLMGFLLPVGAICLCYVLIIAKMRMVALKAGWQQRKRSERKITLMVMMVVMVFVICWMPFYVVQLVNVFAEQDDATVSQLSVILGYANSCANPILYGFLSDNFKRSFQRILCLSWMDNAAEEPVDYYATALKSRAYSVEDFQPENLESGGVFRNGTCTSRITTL
T2 sequence (P31391 whole entry): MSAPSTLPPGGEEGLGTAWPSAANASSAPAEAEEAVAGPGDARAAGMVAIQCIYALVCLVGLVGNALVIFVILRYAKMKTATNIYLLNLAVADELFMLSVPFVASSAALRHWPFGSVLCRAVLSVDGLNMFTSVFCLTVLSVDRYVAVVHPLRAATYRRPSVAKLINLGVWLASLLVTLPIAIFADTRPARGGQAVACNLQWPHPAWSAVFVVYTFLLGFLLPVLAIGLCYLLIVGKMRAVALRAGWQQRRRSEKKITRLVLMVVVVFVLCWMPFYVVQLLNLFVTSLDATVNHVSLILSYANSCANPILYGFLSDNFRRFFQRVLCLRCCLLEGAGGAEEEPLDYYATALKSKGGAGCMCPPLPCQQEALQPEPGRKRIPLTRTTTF

For the molecule `CN1CCC[C@@H]1CC(=O)NC(C)(C)c1cc(Cl)ccc1Cl` [Example 38, (R)-N-(2-(2,5-dichlorophenyl)propan-2-yl)-2-(1-methylpyrrolidin-2-yl)acetamide], the IC50 at SSTR1 is 25100 nM; at SSTR4 [2], 316 nM. For the same molecule, the EC50 on SSTR4 [1] is 63.1 nM.

For `CN1CCC[C@@H]1CC(=O)NC(C)(C)c1nccc2occc12` [Example 39, (R)-N-(2-(furo[3,2-c]pyridin-4-yl)propan-2-yl)-2-(1-methylpyrrolidin-2-yl)acetamide], the figures for the IC50 at SSTR1 and on SSTR4 [2] were greater than 50100 nM and 794 nM, respectively. Further, at SSTR4 [1], the EC50 was 50.1 nM.

For the molecule `CN1CCC[C@@H]1CC(=O)NC(C)(C)c1ccc(Cl)cc1` [Example 40, (R)-N-(2-(4-chlorophenyl)propan-2-yl)-2-(1-methylpyrrolidin-2-yl)acetamide], the IC50 is 20000 nM on SSTR1 and 200 nM on SSTR4 [2]. Besides, the EC50 at SSTR4 [1] was 50.1 nM.

`Cc1cccc2c(C(C)(C)NC(=O)CC3CCCCN3C)noc12` (stereo not drawn) [Example 41, N-(2-(7-methylbenzo[d]isoxazol-3-yl)propan-2-yl)-2-(1-methylpiperidin-2-yl)acetamide]: the IC50 on SSTR1 was 6310 nM; on SSTR4 [2] it was 63.1 nM. Besides, the EC50 on SSTR4 [1] was 3.16 nM.

Consider `Cc1cnc(C(C)(C)NC(=O)CC2CCCCN2C)c2ccccc12` (stereo not drawn) [Example 42, N-(2-(4-methylisoquinolin-1-yl)propan-2-yl)-2-(1-methylpiperidin-2-yl)acetamide], for which the IC50 at SSTR1 is 631 nM; at SSTR4 [2], 3.16 nM. Also, the EC50 on SSTR4 [1] was 0.794 nM.

With `CN1CCCCC1CC(=O)NC(C)(C)c1cc(Cl)ccc1Cl` (stereo not drawn) [Example 45, N-(2-(2,5-dichlorophenyl)propan-2-yl)-2-(1-methylpiperidin-2-yl)acetamide], the IC50 on SSTR1 was 7940 nM; at SSTR4 [2], 158 nM. Besides, the EC50 on SSTR4 [1] was 25.1 nM.

As to `Cc1cccnc1OCC(C)(C)NC(=O)C[C@H]1CCCN1C` [Example 46, (R)-N-(2-methyl-1-((3-methylpyridin-2-yl)oxy)propan-2-yl)-2-(1-methylpyrrolidin-2-yl)acetamide], the IC50 on SSTR1 was 25100 nM; at SSTR4 [2], 398 nM. Moreover, the EC50 on SSTR4 [1] was 12.6 nM.

As to `Cc1cccnc1OCC(C)(C)NC(=O)C[C@@H]1CCCN1C` [Example 47, (S)-N-(2-methyl-1-((3-methylpyridin-2-yl)oxy)propan-2-yl)-2-(1-methylpyrrolidin-2-yl)acetamide], the values for the IC50 on SSTR1 and at SSTR4 [2] were 25100 nM and 398 nM, respectively. For the same molecule, the EC50 on SSTR4 [1] was 12.6 nM.

`CN1CCC[C@H]1CC(=O)NC(C)(C)COc1ncccc1C(F)(F)F` [Example 48, (S)-N-(2-methyl-1-((3-(trifluoromethyl)pyridin-2-yl)oxy)propan-2-yl)-2-(1-methylpyrrolidin-2-yl)acetamide]: the IC50 is 15800 nM on SSTR1 and 316 nM on SSTR4 [2]. Besides, the EC50 on SSTR4 [1] is 25.1 nM.

For the molecule `CN1CCC[C@@H]1CC(=O)NC(C)(C)COc1ncccc1C(F)(F)F` [Example 49, (R)-N-(2-methyl-1-((3-(trifluoromethyl)pyridin-2-yl)oxy)propan-2-yl)-2-(1-methylpyrrolidin-2-yl)acetamide], the IC50 at SSTR1 was 15800 nM; at SSTR4 [2], 200 nM. Moreover, the EC50 at SSTR4 [1] was 25.1 nM.

For the molecule `CCN1CCCC1CC(=O)NC(C)(C)COc1ncccc1C(F)(F)F` (stereo not drawn) [Example 50, 2-(1-ethylpyrrolidin-2-yl)-N-(2-methyl-1-((3-(trifluoromethyl)pyridin-2-yl)oxy)propan-2-yl)acetamide], the IC50 on SSTR1 is 12600 nM; on SSTR4 [2], 126 nM. The EC50 on SSTR4 [1] is 15.8 nM.

Take `Cc1cccnc1OCC1(NC(=O)C[C@@H]2CCCN2C)CCC1` [Example 55, (S)-N-(1-(((3-methylpyridin-2-yl)oxy)methyl)cyclobutyl)-2-(1-methylpyrrolidin-2-yl)acetamide]: the IC50 was 39800 nM on SSTR1 and 1000 nM at SSTR4 [2]. The EC50 on SSTR4 [1] is 100 nM.

On to `CCN1CCC[C@@H]1CC(=O)NC(C)(C)COc1ncccc1C(F)(F)F` [Example 57, (R)-2-(1-ethylpyrrolidin-2-yl)-N-(2-methyl-1-((3-(trifluoromethyl)pyridin-2-yl)oxy)propan-2-yl)acetamide], for which the values for the IC50 at SSTR1 and on SSTR4 [2] were 12600 nM and 100 nM, respectively. In addition, the EC50 at SSTR4 [1] is 3.98 nM.

Regarding `C[C@H](NC(=O)CC1CCCCN1C)c1ccc(Cl)cc1` (stereo partly drawn) [Example 60, N-((S)-1-(4-chlorophenyl)ethyl)-2-(1-methylpiperidin-2-yl)acetamide], the IC50 is 25100 nM on SSTR1 and 501 nM at SSTR4 [2]. On SSTR4 [1], the EC50 is 100 nM.

`CCN1CCCC1CC(=O)NC(C)(C)COc1ncccc1C` (stereo not drawn) [Example 62, 2-(1-ethylpyrrolidin-2-yl)-N-(2-methyl-1-((3-methylpyridin-2-yl)oxy)propan-2-yl)acetamide]: the IC50 was 25100 nM on SSTR1 and 251 nM at SSTR4 [2]. The EC50 on SSTR4 [1] was 25.1 nM.

Consider `Cc1cc2ccccc2c(C(C)(C)NC(=O)C[C@H]2CCCN2C)n1` [Example 70, (R)-N-(2-(3-methylisoquinolin-1-yl)propan-2-yl)-2-(1-methylpyrrolidin-2-yl)acetamide], for which the IC50 on SSTR1 was 1260 nM; at SSTR4 [2] it was 79.4 nM. The EC50 on SSTR4 [1] was 5.01 nM.

With `Cc1cccnc1OCC1(NC(=O)C(C)C2CCCN2C)CC1` (stereo not drawn) [Example 71, N-(1-(((3-methylpyridin-2-yl)oxy)methyl)cyclopropyl)-2-(1-methylpyrrolidin-2-yl)propanamide], the IC50 on SSTR1 is 25100 nM; at SSTR4 [2], 251 nM. At SSTR4 [1], the EC50 was 31.6 nM.

For the molecule `Cc1cccnc1OCC(C)(C)NC(=O)CC12CCCN1CCC2` [Example 77, N-(2-methyl-1-((3-methylpyridin-2-yl)oxy)propan-2-yl)-2-(tetrahydro-1H-pyrrolizin-7a(5H)-yl)acetamide], the values for the IC50 at SSTR1 and on SSTR4 [2] were greater than 50100 nM and 3160 nM, respectively. On SSTR4 [1], the EC50 was 79.4 nM.

As to `CC(C)(COc1ncccc1C(F)F)NC(=O)CC12CCCN1CCC2` [Example 78, N-(1-((3-(difluoromethyl)pyridin-2-yl)oxy)-2-methylpropan-2-yl)-2-(tetrahydro-1H-pyrrolizin-7a(5H)-yl)acetamide], the IC50 was greater than 50100 nM on SSTR1 and 10000 nM at SSTR4 [2]. In addition, the EC50 on SSTR4 [1] was 251 nM.

On to `CN1CCC[C@H]1CC(=O)NC(C)(C)c1cccc(Cl)c1Cl` [Example 80, (S)-N-(2-(2,3-dichlorophenyl)propan-2-yl)-2-(1-methylpyrrolidin-2-yl)acetamide], for which the IC50 at SSTR1 is 20000 nM; at SSTR4 [2] it was 316 nM. The EC50 at SSTR4 [1] was 25.1 nM.

Turning to `Cc1cccc(C(C)(C)NC(=O)C[C@@H]2CCCN2C)c1Cl` [Example 88, (S)-N-(2-(2-chloro-3-methylphenyl)propan-2-yl)-2-(1-methylpyrrolidin-2-yl)acetamide], the IC50 on SSTR1 is 39800 nM; on SSTR4 [2], 398 nM. On SSTR4 [1], the EC50 was 63.1 nM.

As for `Cc1cccc(C(C)(C)NC(=O)C[C@H]2CCCN2C)c1Cl` [Example 91, (R)-N-(2-(2-chloro-3-methylphenyl)propan-2-yl)-2-(1-methylpyrrolidin-2-yl)acetamide], the IC50 is 25100 nM at SSTR1 and 398 nM at SSTR4 [2]. Further, the EC50 on SSTR4 [1] is 39.8 nM.

`Cc1cccc(C(C)(C)NC(=O)C[C@@H]2CCCN2C)c1C` [Example 92, (S)-N-(2-(2,3-dimethylphenyl)propan-2-yl)-2-(1-methylpyrrolidin-2-yl)acetamide]: the IC50 on SSTR1 was greater than 50100 nM; on SSTR4 [2], 1000 nM. Further, the EC50 on SSTR4 [1] was 63.1 nM.

`CN1CCC[C@@H]1CC(=O)NC(C)(C)c1cccc(F)c1Cl` [Example 94, (R)-N-(2-(2-chloro-3-fluorophenyl)propan-2-yl)-2-(1-methylpyrrolidin-2-yl)acetamide]: the IC50 at SSTR1 is greater than 50100 nM; on SSTR4 [2], 398 nM. Further, the EC50 on SSTR4 [1] is 63.1 nM.

As to `CN1CCC[C@@H]1CC(=O)NC(C)(C)c1cccc(Cl)c1Cl` [Example 96, (R)-N-(2-(2,3-dichlorophenyl)propan-2-yl)-2-(1-methylpyrrolidin-2-yl)acetamide], the IC50 at SSTR1 is 15800 nM; on SSTR4 [2], 200 nM. Further, the EC50 on SSTR4 [1] was 15.8 nM.

On to `CC(C)(NC(=O)CC1NCCC1(F)F)c1nccc2ccccc12` (stereo not drawn) [Example 100, 2-(3,3-difluoropyrrolidin-2-yl)-N-(2-(isoquinolin-1-yl)propan-2-yl)acetamide], for which the IC50 was greater than 50100 nM at SSTR1 and 1000 nM at SSTR4 [2]. Besides, the EC50 at SSTR4 [1] is 200 nM.

On to `Cc1cccc2c(C(C)(C)NC(=O)CC3NCCC3(F)F)nccc12` (stereo not drawn) [Example 101, 2-(3,3-difluoropyrrolidin-2-yl)-N-(2-(5-methylisoquinolin-1-yl)propan-2-yl)acetamide], for which the IC50 is greater than 50100 nM at SSTR1 and 631 nM on SSTR4 [2]. Also, the EC50 at SSTR4 [1] was 100 nM.
